Source: patent US12029731B2, “Acyl benzo[d]thiazol-2-amine and their methods of use” (Biohaven Pharmaceutical Holding Company Ltd., priority 2016, dated 2024)
Entries after “also recorded” stand apart in the source; their conditions may differ.

What was measured:
[1] = system: Stage III and IV melanoma; assay: Phase 0 human clinical trial of riluzole in melanoma patients; assay type: in vivo; conditions: after only 14 days of treatment
Text: We have recently shown that riluzole has dramatic anti-melanoma activity in vitro cellular assays, in mice and in a Phase 0 human clinical trial. […] However, the therapeutic utility of riluzole itself in ALS and eventually for melanoma is very constrained by rapid first-pass metabolism in the liver and an exceptionally high level of patient-to-patient variability in the extent of the Cyp1A2-mediated oxidative metabolism that is observed.

C8161 cells [2] = conditions: C8161 human melanoma cells; cited from earlier work
C8161 cells [3] = conditions: positive control, in comparison with no treatment and DMSO treated; cited from earlier work

Nc1nc2ccc(OC(F)(F)F)cc2s1 [riluzole]
patients with clinical or radiologic evidence of tumor response [1]: four of 12; also recorded: four of twelve
effect on excess cellular glutamate (C8161 cells [2]): inhibits excess cellular gluatamate
C8161 cell growth (C8161 cells [3]): dose-dependent suppression
